In brackets after ≈: the same amount, converted by molar mass.
Key:
Assay in all cases: In vitro antibacterial evaluation: minimum inhibitory concentration (MIC), broth dilution method
Type in all cases: cell-based
Staphylococcus sp. = settings: for MIC Coagulase Negative Staphylococcus (GC 4537): strain GC 4537; for MIC Coagulase Negative Staphylococcus (GC 4538): strain GC 4538; for MIC Coagulase Negative Staphylococcus (GC 4547): strain GC 4547; for MIC Staphylococcus aureus-SMITH (GC 4536): strain SMITH GC 4536
Protocol: (§1) The minimum inhibitory concentration (MIC), the lowest concentration of the antibiotic which inhibits growth of the test organism, is determined by the broth dilution method using Muller-Hinton II […] (Baltimore Biological Laboratories) following the recommendations of the National Committee for Clinical Laboratory Standards [Methods for dilution antimicrobial susceptibility tests for bacteria that grow aerobically, approved standard M7-A2, National Committee for Clinical Laboratory Standards, Villanova, Pa].
(§2) An inoculum level of 5×10^5 CFU/mL, and a range of antibiotic concentrations (64-0.06 μg/mL) is used. […] The test organisms include a spectrum of Gram-positive bacteria comprised of Staphylococcus sp., Streptococcus sp. and Enterococcus sp. These organisms include recent clinical isolates that are resistant to methicillin, penicillin and/or vancomycin.

Escherichia coli = settings: for MIC Escherichia coli (GC 4559): strain GC 4559; for MIC Escherichia coli (GC 4560): strain GC 4560
Protocol: as §1, §2

Enterococcus sp. = settings: for MIC Enterococcus faecalis (ATCC 29212): strain ATCC 29212; for MIC Enterococcus faecalis (GC 2242): strain GC 2242; for MIC Enterococcus faecalis (GC 4552): strain GC 4552
Protocol: as §1, §2

[1] = broth dilution, 18 hours at 35° C.

Row | SMILES | MIC Staphylococcus aureus (ATCC 29213) (Staphylococcus sp.; [1]) | MIC Staphylococcus aureus (GC 1131) (Staphylococcus sp.; [1]) | MIC Staphylococcus aureus (GC 4535) (Staphylococcus sp.; [1]) | MIC Staphylococcus aureus SMITH (GC 4536) (Staphylococcus sp.; [1]) | MIC Coagulase Negative Staphylococcus (GC 4537) (Staphylococcus sp.) | MIC Coagulase Negative Staphylococcus (GC 4537) (Staphylococcus sp.; [1]) | MIC Coagulase Negative Staphylococcus (GC 4538) (Staphylococcus sp.) | MIC Coagulase Negative Staphylococcus (GC 4538) (Staphylococcus sp.; [1]) | MIC Coagulase Negative Staphylococcus (GC 4547) (Staphylococcus sp.) | MIC Coagulase Negative Staphylococcus (GC 4547) (Staphylococcus sp.; [1]) | MIC Staphylococcus aureus-SMITH (GC 4536) (Staphylococcus sp.; [1]) | MIC Escherichia coli (GC 4559) (Escherichia coli) | MIC Escherichia coli (GC 4560) (Escherichia coli) | MIC Enterococcus faecalis (ATCC 29212) (Enterococcus sp.) | MIC Enterococcus faecalis (GC 2242) (Enterococcus sp.) | MIC Enterococcus faecalis (GC 4552) (Enterococcus sp.)
1 | CCCCCCC(=O)OCC1OC(Oc2ccc(CC3NC(=O)C(C(C)c4ccccc4)NC(=O)CNC(=O)C(CO)NC(=O)C(C(O)C4CNC(=N)N4C4OC(CO)C(O)C(O)C4O)NC(=O)C(C(O)C4CNC(=N)N4)NC3=O)cc2)C(O)C(O)C1OC1OC(CO)C(O)C(O)C1O (stereo not drawn) [Example 97a, Cyclo[glycyl-β-methylphenylalanyl-O-(6-O-heptanoyl-4-O-hexopyranosylhexopyranosyl)-tyrosyl-3-(2-iminoimidazolidin-4-yl)seryl-3-(3-hexopyranosyl-2-iminoimidazolidin-4-yl)-serylseryl]] | 1 µg/mL (≈ 0.711 µM) | 2 µg/mL (≈ 1.42 µM) | 2 µg/mL (≈ 1.42 µM) | 0.5 µg/mL (≈ 0.355 µM) | 4 µg/mL (≈ 2.84 µM) | 4 µg/mL (≈ 2.84 µM) | 2 µg/mL (≈ 1.42 µM) | 2 µg/mL (≈ 1.42 µM) | 2 µg/mL (≈ 1.42 µM) | 2 µg/mL (≈ 1.42 µM) | 0.5 µg/mL (≈ 0.355 µM) | >64 µg/mL | 1 µg/mL (≈ 0.711 µM) | 8 µg/mL (≈ 5.68 µM) | 4 µg/mL (≈ 2.84 µM) | 16 µg/mL (≈ 11.4 µM)
2 | CCCCCCC(=O)OCC1OC(N2C(=N)NCC2C(O)C2NC(=O)C(C(O)C3CNC(=N)N3)NC(=O)C(Cc3ccc(OC4OC(CO)C(OC5OC(CO)C(O)C(O)C5O)C(O)C4O)cc3)NC(=O)C(C(C)c3ccccc3)NC(=O)CNC(=O)C(CO)NC2=O)C(O)C(O)C1O (centres unmarked) [Example 97] | >64 µg/mL | >64 µg/mL | >64 µg/mL | >64 µg/mL | >64 µg/mL | >64 µg/mL | >64 µg/mL | >64 µg/mL | >64 µg/mL | >64 µg/mL | >64 µg/mL | >64 µg/mL | 2 µg/mL (≈ 1.42 µM) | >64 µg/mL | >64 µg/mL | >64 µg/mL
